According to patent US6028116A, “Substituted condensation products of 1H-indenyl-hydroxyalkanes with aldehydes for neoplasia” (Cell Pathways, Inc., priority 1998, dated 2000):
Like-named read-outs stand apart in the source and are kept apart here.

Tests used:
colonic polyps = settings: cited from earlier work
[1] = system: SW-480 colon adenocarcinoma cells; assay: Growth (% vehicle) in dose response of the DNA fragmentation test; type: cell-based; settings: Homo sapiens, SW480, 48 h
Procedure: (§1) Apoptosis was also measured based on the amount of fragmented DNA contained in cell lysates. Briefly, SW-480 colon adenocarcinoma cells were plated in 96-well microtitre plates ("MTP") at a density of 10K cells/well in 180 μl and were incubated for 24 hrs. Cells were then treated with 20 μl aliquots of appropriately diluted compound, and allowed to incubate for an additional 48 hrs.
(§2) In addition, using the DNA fragmentation test above, dose responses for the compounds of Example 8 and 9 were obtained.

[2] = system: SW-480 colon adenocarcinoma cells; assay: Apoptosis, DNA fragmentation (Cell Death Detection ELISA plus); type: cell-based, human; settings: for EC50: SW-480, by data analysis software or estimated from effective concentration range
Procedure: as §1
After the incubation, samples were prepared according to the following steps. The MTP was centrifuged (15 min., 1000 rpm) and the supernatant was carefully removed by fast inversion of the MTP. The cell pellets in each well were resuspended in 200 μl lysis buffer and incubated for 45 min. at room temperature to lyse the cells. The lysates were then centrifuged (15 min., 1000 rpm) and 20 μl aliquots of the supernatant (=cytoplasmicfraction) were transferred into the streptavidin-coated MTP for analysis. Care was taken not to shake the lysed pellets in the MTP (=cell nucleii containing high molecular weight, unfragmented DNA). Samples were analyzed immediately, because storage at 4° C. or -20° C. reduces the ELISA-signals.
Samples were then processed according to a DNA fragmentation assay protocol, and dose-response curves were generated based on optical density readings. Quantification of DNA was done by a commercially available photometric enzyme-immunoassay manufactured by Mannheim-Boehringer under the name "Cell Death Detection ELISA ^plus ". The assay is based on a quantitative sandwich-enzyme-immunoassay-principle using mouse monoclonal antibodies directed against DNA and histones, respectively. This allows the specific determination of mono and oligonucleosomes in the cytoplasmatic fraction of cell lysates. In brief, the assay procedure is as follows. The sample (cell-lysate, serum, culture-supematant etc.) is placed into a streptavidin-coated MTP. Subsequently, a mixture of anti-histone-biotin and anti-DNA-POD is followed by incubation for 2 hours. During the incubation period, the anti-histone antibody binds to the histone-component of the nucleosomes and simultaneously fixes the immunocomplex to the streptavidin-coated MTP via its biotinylation. Additionally, the anti-DNA-POD antibody reacts with the DNA component of the nucleosomes. After removal of unbound antibodies by washing, the amount of nucleosomes is quantified by the POD retained in the immunocomplex. POD is determined photometrically with ABTS® (2,2'-Azino-di[3-ethylbenzthiazolin-sulfonate]) as substrate.
Fold stimulation (FS=ODmax/ODveh), an indicator of apoptotic response, was determined for each compound tested. EC50 values were determined either specifically by data analysis software, or by estimates based on the effective concentration range of each compound (ECR=min. effective dose-min. dose to peak effect). These FS and EC50 values for the tested compounds are listed above in Table 3.
as §2
Based on the data obtained from the DNA fragmentation tests in Tables 4 and 5, fold stimulations values for those compounds are also calculated at 100 μM by dividing the optical densities obtained at 100 μM by the optical densities of the control. Based on the data in Tables 4 and 5, fold stimulation values of 3.9 and 2.1 for the compounds of Examples 8 and 9 are obtained, accordingly.

[3] = system: human colon carcinoma cell line, SW-480; assay: Growth inhibition, Sulforhodamine B (SRB) protein binding assay; type: cell-based; settings: for inhibition at 100 µM: SW480, 144 h, SW-480, six days
Procedure: The compounds of Examples #1, #8, and #9 were assayed for their growth inhibitory activity on the human colon carcinoma cell line, SW-480 obtained from ATCC (Rockville, Md.), to ascertain the degree of growth inhibition. Growth inhibition of this cell line is indicative of a benefit on precancerous lesions and neoplasms. The cell line and growth assay employed for such experiments are well characterized, and are used to evaluate the anti-neoplastic properties of compounds. The assay is used by the United States National Cancer Institute in its screening program for new anti-cancer drugs.
Drug stock solutions were made in 100% DMSO and were then diluted with RPMI media for cell culture testing. All drug solutions were prepared fresh on the day of testing. The cultured cells were obtained at passage #99 and grown in RPMI media supplemented with 5% fetal calf serum, and 2 mM glutamine, 100 U/ml penicillin, […] streptomycin, and 0.25 μg/ml amphotericin. The cultures were maintained in a humidified atmosphere of 95% air and 5% CO2 at 37° C. The cultures were passaged at preconfluent densities using a solution of 0.05% trypsin and 0.53 mM EDTA. Cells were plated at 1000 cells/well for 96 well flat-bottom microtiter plates.
Tumor cell growth inhibition was assessed using the Sulforhodamine B (SRB) protein binding assay. […] For each plate, 6 wells were designated as no treatment controls, six wells as vehicle (0.1% DMSO) controls, and the remaining wells for drug dilutions with three wells per drug. At the end of the exposure period, the cells were fixed and stained with sulforhodamine B, a protein binding dye. The dye was then solubilized, and the optical density of the resulting solution was determined on a 96-well plate reader. The mean dye intensity of the treated wells was then divided by the mean dye intensity in the control wells (6 wells of each) to determine the effect of the drug on the cells. Dye intensity is proportional to the number of cells or amount of protein per well. The resultant "percent inhibition" value then represents the degree of growth inhibition caused by the drug.
In addition, a dose response for growth inhibition was determined for the compound of Example 9, and an IC50 value was determined. This value is equivalent to the concentration of drug needed to inhibit tumor cell growth by 50%. […] Each experiment included at least three wells per drug concentration. Concentration was plotted on a log scale on the X-axis.

[4] = system: HT-29 human colon carcinoma cells; assay: Apoptosis, morphology of apoptotic cells by fluorescent microscopy (acridine orange / ethidium bromide); type: cell-based
Procedure: Apoptosis was measured using an assay of cell death based on morphological characteristics of apoptotic cells (i.e., condensed chromatin). Drug preparation and cell culture conditions were the same as for the SRB assay described above, except that HT-29 human colon carcinoma cells were used. Confluent cultures were established in 12.5 cm^2 flasks by plating 0.5×10^6 cells/flask. The cultures were assayed for apoptosis by fluorescent microscopy following labeling with acridine orange and ethidium bromide. Floating and attached cells were collected by trypsinization and washed three times in PBS. One ml aliquots were centrifuged (3 g). The pellet was resuspended in 25 μl media and 1 μl of a dye mixture containing 100 μg/ml acridine orange and 100 μg/ml ethidium bromide prepared in PBS and mixed gently. Ten μl of the mixture were placed on a microscope slide and covered with a 22 mm^2 coverslip, which was examined with 40× dry objectives under epillumination by filter combination.
An observer blinded in regard to the identity of the samples scored at least 100 cells per sample. Apoptotic cells were identified by nuclear condensation of chromatin stained by the acridine orange or ethidium bromide.

[5] = target: T1, purified cyclooxygenase Type I (COX-I) (Ovis aries, UniProt P05979); assay: Cyclooxygenase Type I (COX-I) inhibition; type: biochemical, ram; settings: arachidonic acid 100 μM, 2.0 min at 37° C.
T1 construct: The COX-I was purified from ram seminal vesicles; from tissue; host or cells: ram seminal vesicles
T1 sequence (P05979 25-600): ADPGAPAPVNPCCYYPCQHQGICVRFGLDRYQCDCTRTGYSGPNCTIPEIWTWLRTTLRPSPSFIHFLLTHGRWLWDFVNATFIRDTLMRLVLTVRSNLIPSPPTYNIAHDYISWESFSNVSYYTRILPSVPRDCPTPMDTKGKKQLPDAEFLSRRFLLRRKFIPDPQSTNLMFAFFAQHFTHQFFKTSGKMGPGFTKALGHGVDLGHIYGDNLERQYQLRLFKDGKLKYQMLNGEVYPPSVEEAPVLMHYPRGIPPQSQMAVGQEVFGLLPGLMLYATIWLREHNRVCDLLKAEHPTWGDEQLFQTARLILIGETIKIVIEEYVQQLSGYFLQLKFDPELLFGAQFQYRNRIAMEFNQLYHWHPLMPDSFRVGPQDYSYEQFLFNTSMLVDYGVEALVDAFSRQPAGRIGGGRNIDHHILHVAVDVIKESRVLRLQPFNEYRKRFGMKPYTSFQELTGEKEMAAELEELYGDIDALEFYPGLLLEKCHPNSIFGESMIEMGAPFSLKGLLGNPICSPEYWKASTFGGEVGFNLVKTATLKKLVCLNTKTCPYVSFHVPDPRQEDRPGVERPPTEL
Procedure: COX-I catalyzes the formation of prostaglandins and thromboxane by the oxidative metabolism of arachidonic acid.
Briefly, purified COX-I was incubated with arachidonic acid (100 μM) for 2.0 min at 37° C. in the presence or absence of test compounds. The assay was terminated by the addition of TCA, and COX-I activity was determined by absorbance at 530 nm.

[6] = Homo sapiens, SW480, 48 h, 100 μM, OD at 100 μM divided by OD of control, read-out: fold stimulation calculated at 100 μM from Tables 4 and 5
[7] = Homo sapiens, SW480, 100 μM, FS=ODmax/ODveh, fold stimulation, SW-480, 48 hrs, read-out: DNA Fragmentation FS (100 μM)

Row | inhibition at 100 µM [5] [%] | SMILES | activity at 0.01 µM [1] [%] | activity at 0.1 µM [1] [%] | activity at 1 µM [1] [%] | activity at 10 µM [1] [%] | activity at 100 µM [1] [%] | Apoptosis Level (Mean OD Value ± SD) ([2]; 0.01 μM) [OD] | Apoptosis Level (Mean OD Value ± SD) ([2]; 0.1 μM) [OD] | Apoptosis Level (Mean OD Value ± SD) ([2]; 1 μM) [OD] | Apoptosis Level (Mean OD Value ± SD) ([2]; 10 μM) [OD] | Apoptosis Level (Mean OD Value ± SD) ([2]; 100 μM) [OD] | fold induction at 100 µM [2, 6] | fold induction at 100 µM [2, 7] | EC50 ([2]; Homo sapiens, SW480) [µM] | inhibition at 100 µM [3] [%] | further results
1 | – | CC1=C(CC(=O)O)c2cc(F)ccc2/C1=C\c1ccc([S+](C)[O-])cc1 (stereo not drawn) [sulindac] | – | – | – | – | – | – | – | – | – | – | – | – | – | – | gastric side effects (colonic polyps; chronic administration, high cancer-risk patients): causes gastric side effects in many such patients; effect on colonic polyps (colonic polyps; patients): Polyps virtually disappear
2 | – | COc1cc(/C=C2/C(C)=C(CCO)c3cc(F)ccc32)cc(OC)c1OC [Example 8, (Z)-5-Fluoro-2-Methyl-1-(3,4,5-Trimethoxybenzylidene)-1H-3-Indenyl-(2-Hydroxy)Ethane] | 109 ± 9.2 | 105 ± 5.5 | 103 ± 6.6 | 24 ± 16 | 5 ± 0.6 | 0.272 ± 0.013 | 0.277 ± 0.044 | 0.304 ± 0.044 | 0.355 ± 0.049 | 0.974 ± 0.124 | 3.9 | 5.4 | 20 | 93 | activity at 0.001 µM ([1]; 0.001 μM): 101 ± 4.6%; activity at 500 µM ([1]; 500 μM): 9 ± 3.4%; Apoptosis Level (Mean OD Value ± SD) ([2]; 0.001 μM): 0.252 ± 0.017 OD; Apoptosis Level (Mean OD Value ± SD) ([2]; 500 μM): 0.76 ± 0.113 OD
3 | – | CC1=C(CC(=O)O)c2cc(F)ccc2/C1=C\c1ccc(S(C)(=O)=O)cc1 [Exisulind, reference compound] | – | – | – | – | – | – | – | – | – | – | – | – | 425 | – | Morphology % Apoptotic Cells (@540 μM) ([4]; 540 μM): 48%; fold induction at 700 µM ([2]; Homo sapiens, SW480, 700 μM, FS=ODmax/ODveh, fold stimulation, SW-480, 48 hrs): 3.4
4 | < 25 | CC1=C(CCO)c2cc(F)ccc2/C1=C\c1ccc(S(C)(=O)=O)cc1 [Example 9, (Z)-5-Fluoro-2-Methyl-1-(4-Methylsulfonylbenzylidene)-1H-3-Indenyl-(2-Hydroxy)Ethane] | 107 ± 7.4 | 111 ± 16.7 | 106 ± 6.3 | 103 ± 9.3 | 21 ± 0.65 | 0.272 ± 0.033 | 0.312 ± 0.05 | 0.296 ± 0.052 | 0.261 ± 0.022 | 0.742 ± 0.095 | 2.1 | 6.5 | 89.3 | 84 | activity at 0.05 µM ([1]; 0.05 μM): 108 ± 9.6%; activity at 0.5 µM ([1]; 0.5 μM): 114 ± 18.1%; activity at 5 µM ([1]; 5 μM): 100 ± 8.3%; activity at 50 µM ([1]; 50 μM): 35 ± 0.246%; Morphology % Apoptotic Cells 100 μM ([4]; 100 μM): 98%; Apoptosis Level (Mean OD Value ± SD) ([2]; 0.05 μM): 0.285 ± 0.03 OD; Apoptosis Level (Mean OD Value ± SD) ([2]; 0.5 μM): 0.258 ± 0.03 OD; Apoptosis Level (Mean OD Value ± SD) ([2]; 5 μM): 0.239 ± 0.024 OD; Apoptosis Level (Mean OD Value ± SD) ([2]; 50 μM): 0.259 ± 0.068 OD; IC50 ([3]; SW480, SW-480, obtained graphically from dose response): 29.2 µM
5 | 70 | CSc1ccc(/C=C2/C(C)=C(CCO)c3cc(F)ccc32)cc1 [Example 1, (Z)-5-Fluoro-2-Methyl-1-(4-Methylthio-Benzylidene)-1H-3-Indenyl-(2-Hydroxy)Ethane] | – | – | – | – | – | – | – | – | – | – | – | 4.9 | – | 71 | –
